Laboratory results as given in patent US6951869B2, “Use of leukotriene receptor antagonist for treatment of scarring” (priority 2002, dated 2005).

Tests used:
[1] = test system: capsular contracture; assay: Treatment of capsular contracture after breast implantation in patients (case reports, Bakers Class); format: in vivo, human
Experimental: The breasts remained soft until 4 years and 2 months following the operation. The left breast then developed Bakers Class III capsular contracture, but the right breast remained soft. Patient was then placed on ACCOLATE® 20 mg, twice daily. One month following the prescription of ACCOLATE®, the left breast was softer (Bakers Class II) and three months later, it was even softer (Bakers Class I). Four months following ACCOLATE® therapy, both breasts were soft again (Bakers Class I). […] Two weeks following the operation, patient developed bilateral Bakers Class III capsular contractures. […] Three months following the ACCOLATE® therapy, both breasts had achieved Bakers Class I status and at 8 months post-ACCOLATE® therapy, both breasts remained soft and at Bakers Class I level. […] Twenty days following the second operation, patient noted an increasing firmness of both breasts and breast massage and vitamin E therapy was continued. However, four months following the second operation, patient developed a severe capsular contracture in the left breast (Bakers Class IV). The right breast, however, remained soft (Bakers Class I). Patient was placed on ACCOLATE® at 20 mg twice daily. […] person was diagnosed with infiltrating ductal carcinoma in the left breast in June of 2000. Patient underwent a modified radical mastectomy with immediate reconstruction with placement of a tissue expander. […] Postoperatively, patient received chemotherapy (ADRIAMYCIN®, Cyclophosphamide, TAXOL®) and was placed on a study protocol for HERCEPTIN®. In February of 2001, patient underwent exchange of the tissue expander for a […] textured saline implant which was placed submuscularly. Six weeks following the implant placement, patient received local radiation therapy to the left breast of which they received a total of 5000 rads. Immediately following the radiation therapy, patient noted redness and blistering of the skin surrounding the left breast. Three weeks post-radiation therapy, patient noted hardening of the left breast mound, which quickly progressed to a Bakers Class IV capsular contracture by the fifth week following radiation therapy. […] Patient was then placed on ACCOLATE® therapy at 20 mg twice a day. […] Additionally, patient noted a significant improvement in the mastectomy scar which had been extremely hard and firm prior to the ACCOLATE® therapy. […] person underwent augmentation mammoplasty in 1986. 250 cc silicon implants were placed on each side above the muscle. Postoperatively the subject had no complications. The breasts remained soft for 5 years. In 1991, subject noted increasing firmness in both breasts. Subject received no treatment at that time. 17 years after surgery, subject was presented for possible surgical intervention. Upon examination, subject was noted to have Bakers Class IV capsular contractures bilaterally and was placed on Zafirlukast (Accolate®) 20 mg two times daily. […] Three months post Zafirlukast (Accolate®) therapy, subject went progressed a Bakers Class IV to a Bakers Class III on the right and a Bakers Class II on the left.

[2] = test system: mastectomy scar; assay: Effect on mastectomy scar in a patient (case report); format: in vivo, human; conditions: Example IV patient, scar extremely hard and firm before therapy; 20 mg twice a day
Text: Person was diagnosed with infiltrating ductal carcinoma in the left breast in June of 2000. Patient underwent a modified radical mastectomy with immediate reconstruction with placement of a tissue expander. […] Postoperatively, patient received chemotherapy (ADRIAMYCIN®, Cyclophosphamide, TAXOL®) and was placed on a study protocol for HERCEPTIN®. In February of 2001, patient underwent exchange of the tissue expander for a […] textured saline implant which was placed submuscularly. Six weeks following the implant placement, patient received local radiation therapy to the left breast of which they received a total of 5000 rads. Immediately following the radiation therapy, patient noted redness and blistering of the skin surrounding the left breast. Three weeks post-radiation therapy, patient noted hardening of the left breast mound, which quickly progressed to a Bakers Class IV capsular contracture by the fifth week following radiation therapy. […] Patient was then placed on ACCOLATE® therapy at 20 mg twice a day. […] Additionally, patient noted a significant improvement in the mastectomy scar which had been extremely hard and firm prior to the ACCOLATE® therapy.

[3] = 20 mg twice daily accepted dosage, adults and children ages 12 and up; cited from earlier work
[4] = Example IV patient, 20 mg twice a day, after one month

| Compound | Softness of breast implant ([1]; Example IV patient, post-radiation Bakers Class IV before therapy, 20 mg twice a day, two weeks) | Bakers Class of capsular contracture, left breast implant [1, 4] | Pain and distortion [1, 4] | Softness of both breasts ([1]; Example V patient, bilateral Bakers Class IV before therapy, 20 mg two times daily, 3 weeks) | Mastectomy scar appearance and hardness [2] | Reported side effect: headaches [3] | Reported side effect: nausea [3] | Relief of capsular contracture ([1]; Example IV patient, Bakers Class IV, given with breast massage, before ACCOLATE therapy) |
| --- | --- | --- | --- | --- | --- | --- | --- | --- |
| COc1cc(C(=O)NS(=O)(=O)c2ccccc2C)ccc1Cc1cn(C)c2ccc(NC(=O)OC3CCCC3)cc12 [ACCOLATE®] | noticeable softening | approaching a Bakers Class I softness | completely gone | some improvement | both softer and less noticeable | 12.9% | 3.1% | – |
| vitamin E | – | – | – | – | – | – | – | without relief |
